Experimental findings from patent US12215107B1, “Pyrazino[1′,2′:1,5]pyrazolo[4,3-c] [2,6] naphthyridine compounds as CK2 inhibitors” (KING FAISAL UNIVERSITY, priority 2024, dated 2025) are described below.

Test [1] concerns the target T1, recombinant human CK2 (RRββ-holoenzyme) (Homo sapiens, UniProt P68400).
T1 construct: purchased Millipore
Put plainly: CK2 Kinase Assay (33P-ATP, filter plate). The format is biochemical. To be noted: final ATP concentration 15 μM, 10 minutes at 30° C.; read-out: protein kinase CK2 IC50. How it is done:
CK2 Kinase Assay was conducted using the protocol as described in Pierre F. et al; J. Med. Chem. 2011, 54, 635-654. The tested compounds in aqueous solution were added at a volume of 10 μL to a reaction mixture comprising 10 μL of assay dilution buffer (ADB; 20 mM MOPS, pH 7.2, 25 mM β-glycerol phosphate, 5 mM EGTA, 1 mM sodium orthovanadate, and 1 mM dithiothreitol), 10 μL of substrate peptide (RRRDDDSDDD, dissolved in ADB at a concentration of 1 mM), 10 μL of recombinant human CK2 (RRββ-holoenzyme, 25 ng dissolved in ADB; Millipore). Reactions were initiated by the addition of 10 μL of ATP solution (90% 75 mMMgCl2, 75 μM ATP (final ATP concentration: 15 μM) dissolved in ADB; 10% [γ-33P] ATP (stock 1 mCi/100 μL; 3000 Ci/mmol (Perkin-Elmer) and maintained for 10 minutes at 30° C. The reactions were quenched with 100 μL of 0.75% phosphoric acid and then transferred to and filtered through a phosphor cellulose filter plate (Millipore). After washing each well five times with 0.75% phosphoric acid, the plate was dried under vacuum for 5 min and, following the addition of 15 μL of scintillation fluid to each well, the residual radioactivity was measured using a Wallac […]. The IC50 values were derived from eight concentrations of test inhibitors.

The next test has as its system A375 (melanoma). Put plainly: MTT in vitro cytotoxic activity assay, A375. The format is cell-based. To be noted: Homo sapiens, A-375, cells exposed for 96 hours, read-out: Cytotoxicity activity IC50 (50% inhibition of cell proliferation). How it is done:
(§1) Compounds 1-16 were screened for their in vitro cytotoxic activity utilizing a 3-(4,5-dimethyl-thiazol-2-yl)-2,5-diphenyltetrazolium bromide (MTT) assay against selected cancer human cell lines consisting of PC3 (prostate), HCT116 (colon), A375 (melanoma), H1299 (lung), MIAPaCa-2 (pancreas), HL60 (leukemia), MCF7 (breast), MDA-MB-231 (breast) (T. Mosmann, J. Immunol. Meth., 1983, 65, 55-63). The cells were cultured at 37° C. in RMPI1640 medium supplemented with 10% fetal bovine serum, 50 IU/mL penicillin, and 50 μg/mL streptomycin in a 5% CO2 incubator. All cells were sub-cultured 3 times/week by trypsinisation. Viable cells were seeded and allowed to adhere for 12 hours before a test drug was added in 96-well plates at an initial density of 1.0×10^5 cells/mL. Tumor cell lines were separately exposed to various concentrations of the tested compounds followed by incubation at a temperature of 37° C. during 96 hours inside a medium of fresh RMPI 1640. Cells were subsequently incubated at 37° C. using MTT at 0.5 mg/mL during 4 hours. After removal of supernatant, formazan crystals were dissolved in isopropanol and the optical density was measured at 570 nm. CX-4945 was used as a positive control.

For a further test, the system named is MDA-MB-231 (breast). Put plainly: MTT in vitro cytotoxic activity assay, MDA-MB-231. To be noted: Homo sapiens, cells exposed for 96 hours, read-out: Cytotoxicity activity IC50 (50% inhibition of cell proliferation). It counts as cell-based. How it is done: as §1
The next test concerns PC3 (prostate). The experiment in a line: MTT in vitro cytotoxic activity assay, PC3. The format is cell-based. The conditions noted are these: Homo sapiens, Prostate cell, cells exposed for 96 hours, read-out: Cytotoxicity activity IC50 (50% inhibition of cell proliferation). How it is done:
as §1

The next test has as its system H1299 (lung). Put plainly: MTT in vitro cytotoxic activity assay, H1299. The format is cell-based. To be noted: Homo sapiens, NCI-H1299, cells exposed for 96 hours, read-out: Cytotoxicity activity IC50 (50% inhibition of cell proliferation). How it is done:
as §1

In the next test the test system is MIAPaCa-2 (pancreas). The experiment in a line: MTT in vitro cytotoxic activity assay, MIAPaCa-2. It counts as cell-based. To be noted: Homo sapiens, MIA PaCa-2, cells exposed for 96 hours, read-out: Cytotoxicity activity IC50 (50% inhibition of cell proliferation). How it is done: as §1
The test system of the next test is HL60 (leukemia). The experiment in a line: MTT in vitro cytotoxic activity assay, HL60. The format is cell-based. To be noted: Homo sapiens, HL-60, cells exposed for 96 hours, read-out: Cytotoxicity activity IC50 (50% inhibition of cell proliferation). How it is done: as §1
In a further test the test system is MCF7 (breast). The experiment in a line: MTT in vitro cytotoxic activity assay, MCF7. The format is cell-based. The conditions noted are these: Homo sapiens, cells exposed for 96 hours, read-out: Cytotoxicity activity IC50 (50% inhibition of cell proliferation). How it is done:
as §1

The test system of a further test is HCT116 (colon). The experiment in a line: MTT in vitro cytotoxic activity assay, HCT116. The format is cell-based. To be noted: Homo sapiens, HCT-116, cells exposed for 96 hours, read-out: Cytotoxicity activity IC50 (50% inhibition of cell proliferation). How it is done:
as §1

T1 sequence (P68400 whole entry): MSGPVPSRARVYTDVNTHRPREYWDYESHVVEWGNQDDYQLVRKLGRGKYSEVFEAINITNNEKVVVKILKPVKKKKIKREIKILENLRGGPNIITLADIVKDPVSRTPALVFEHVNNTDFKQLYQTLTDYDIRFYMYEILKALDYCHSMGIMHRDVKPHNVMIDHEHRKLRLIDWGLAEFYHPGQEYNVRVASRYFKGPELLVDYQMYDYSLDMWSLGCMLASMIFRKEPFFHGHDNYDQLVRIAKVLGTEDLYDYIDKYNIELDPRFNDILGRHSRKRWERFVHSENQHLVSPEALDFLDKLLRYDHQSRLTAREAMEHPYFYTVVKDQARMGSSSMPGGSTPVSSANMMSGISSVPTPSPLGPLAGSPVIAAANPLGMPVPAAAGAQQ
T1 sequence (P67870 whole entry partner): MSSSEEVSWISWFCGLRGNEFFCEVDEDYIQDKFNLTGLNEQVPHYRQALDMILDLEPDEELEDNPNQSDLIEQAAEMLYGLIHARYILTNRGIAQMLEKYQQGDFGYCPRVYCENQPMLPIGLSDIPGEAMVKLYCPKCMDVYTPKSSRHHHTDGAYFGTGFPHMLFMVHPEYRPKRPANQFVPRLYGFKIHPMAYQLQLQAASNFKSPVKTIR

Take `Clc1cccc(Nc2nc3c(nn4ccncc34)c3cnccc23)c1` [Compound (1), N-(3-chlorophenyl)pyrazino[1′,2′:1,5]pyrazolo[4,3-c][2,6]naphthyridin-5-amine]: the IC50 in test [1] came to 22 nM; in the test with A375 (melanoma), 3200 nM; in the test with MDA-MB-231 (breast), 4100 nM; with PC3 (prostate), 1100 nM; in the test on H1299 (lung) it was 1900 nM; with MIAPaCa-2 (pancreas) it was 1000 nM. Also, the results for the IC50 in the test with HL60 (leukemia), with MCF7 (breast) and in the test with HCT116 (colon) were 3700 nM, 4900 nM and 1500 nM, respectively.
